The values below come from ChEMBL document CHEMBL5154885, “Synthesis and biological evaluation of Haspin inhibitors: Kinase inhibitory potency and cellular activity” (Eur J Med Chem, 2022).

Series [1] addresses T1, Serine/threonine-protein kinase haspin (Homo sapiens, UniProt Q8TF76).
T1 sequence (Q8TF76 whole entry): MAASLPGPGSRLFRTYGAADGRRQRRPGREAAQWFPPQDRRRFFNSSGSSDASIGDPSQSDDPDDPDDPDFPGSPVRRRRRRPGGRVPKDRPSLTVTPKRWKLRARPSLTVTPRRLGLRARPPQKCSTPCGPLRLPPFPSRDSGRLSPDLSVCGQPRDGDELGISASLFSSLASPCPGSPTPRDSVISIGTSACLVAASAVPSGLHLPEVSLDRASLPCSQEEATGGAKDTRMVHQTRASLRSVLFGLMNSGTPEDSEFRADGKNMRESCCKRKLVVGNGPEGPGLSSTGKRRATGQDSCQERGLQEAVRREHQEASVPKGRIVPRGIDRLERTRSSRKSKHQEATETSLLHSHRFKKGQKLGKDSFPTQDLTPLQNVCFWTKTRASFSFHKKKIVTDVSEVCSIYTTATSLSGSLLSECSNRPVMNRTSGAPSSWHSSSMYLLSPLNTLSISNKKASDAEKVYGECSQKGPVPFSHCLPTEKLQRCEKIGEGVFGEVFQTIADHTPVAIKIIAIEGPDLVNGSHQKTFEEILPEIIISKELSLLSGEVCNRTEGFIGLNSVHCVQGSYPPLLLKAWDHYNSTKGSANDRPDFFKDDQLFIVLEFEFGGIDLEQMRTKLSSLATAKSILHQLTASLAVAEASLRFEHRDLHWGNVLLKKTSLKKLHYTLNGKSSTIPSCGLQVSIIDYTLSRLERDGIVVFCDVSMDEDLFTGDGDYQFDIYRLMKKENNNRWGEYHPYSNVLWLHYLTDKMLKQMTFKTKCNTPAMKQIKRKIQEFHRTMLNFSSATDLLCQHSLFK

The target of series [2] is T2, Tyrosine-protein kinase JAK3 (Homo sapiens, UniProt P52333).
T2 sequence (P52333 whole entry): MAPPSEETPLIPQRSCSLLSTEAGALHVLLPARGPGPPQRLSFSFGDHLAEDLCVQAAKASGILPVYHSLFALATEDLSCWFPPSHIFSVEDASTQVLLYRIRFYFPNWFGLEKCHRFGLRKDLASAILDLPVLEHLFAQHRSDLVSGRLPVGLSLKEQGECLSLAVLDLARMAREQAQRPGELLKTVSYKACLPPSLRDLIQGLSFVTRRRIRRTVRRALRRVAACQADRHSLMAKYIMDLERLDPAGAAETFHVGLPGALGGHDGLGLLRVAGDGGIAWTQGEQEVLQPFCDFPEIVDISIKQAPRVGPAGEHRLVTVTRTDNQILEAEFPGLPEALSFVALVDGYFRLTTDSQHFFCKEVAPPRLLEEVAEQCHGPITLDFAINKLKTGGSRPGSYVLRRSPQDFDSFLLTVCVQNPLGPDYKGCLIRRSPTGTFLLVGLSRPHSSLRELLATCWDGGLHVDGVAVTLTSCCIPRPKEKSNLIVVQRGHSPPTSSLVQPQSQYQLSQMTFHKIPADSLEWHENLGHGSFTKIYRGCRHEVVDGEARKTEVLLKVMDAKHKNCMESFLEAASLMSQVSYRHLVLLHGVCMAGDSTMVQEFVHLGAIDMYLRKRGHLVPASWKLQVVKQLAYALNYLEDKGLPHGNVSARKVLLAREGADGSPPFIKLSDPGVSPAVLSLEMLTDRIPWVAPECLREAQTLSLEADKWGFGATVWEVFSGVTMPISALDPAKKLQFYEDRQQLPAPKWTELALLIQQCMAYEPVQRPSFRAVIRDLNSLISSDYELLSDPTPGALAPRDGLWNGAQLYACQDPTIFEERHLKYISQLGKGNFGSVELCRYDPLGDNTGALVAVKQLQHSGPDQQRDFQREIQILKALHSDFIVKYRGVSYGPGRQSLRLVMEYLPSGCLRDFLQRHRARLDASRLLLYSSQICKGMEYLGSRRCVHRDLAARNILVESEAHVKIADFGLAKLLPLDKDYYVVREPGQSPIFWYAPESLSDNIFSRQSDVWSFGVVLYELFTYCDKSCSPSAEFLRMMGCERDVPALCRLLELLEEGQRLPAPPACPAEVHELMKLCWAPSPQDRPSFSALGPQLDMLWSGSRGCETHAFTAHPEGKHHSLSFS
Kind of series: Inhibition of human recombinant JAK3 expressed in baculovirus sf9 insect cells using GGEEEEYFELVKKKK as substrate measured after 30 mins in presence of ATP by ADP-Glo assay. A general note: ADP-Glo first removes unused ATP, then detects ADP through luciferase.

Series [3] deals with Dual specificity protein kinase CLK1 (Mus musculus, UniProt P22518). The series can be described thus: Inhibition of recombinant mouse CLK1 expressed in bacteria using GRSRSRSRSRSR as substrate in presence of ATP measured after 30 mins by ADP-Glo assay.
Sequence of Dual specificity protein kinase CLK1 (P22518 whole entry): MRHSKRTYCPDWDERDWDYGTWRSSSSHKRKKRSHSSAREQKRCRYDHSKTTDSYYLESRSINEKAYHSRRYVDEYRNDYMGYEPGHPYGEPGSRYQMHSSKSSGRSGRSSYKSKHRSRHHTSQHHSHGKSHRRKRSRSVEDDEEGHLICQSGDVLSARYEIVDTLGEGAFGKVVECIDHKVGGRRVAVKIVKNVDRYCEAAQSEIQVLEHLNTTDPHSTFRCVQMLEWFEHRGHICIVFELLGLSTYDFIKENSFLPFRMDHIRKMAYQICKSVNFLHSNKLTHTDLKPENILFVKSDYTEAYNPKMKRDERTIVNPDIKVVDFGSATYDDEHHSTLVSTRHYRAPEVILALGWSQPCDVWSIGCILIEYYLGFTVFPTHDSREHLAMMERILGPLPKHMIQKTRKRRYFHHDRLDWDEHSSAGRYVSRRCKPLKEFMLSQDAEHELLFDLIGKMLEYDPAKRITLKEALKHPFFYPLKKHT
Series [4] addresses Cyclin-dependent kinase 5/CDK5 activator 1 (Homo sapiens, UniProt Q00535). Kind of series: Inhibition of human recombinant CDK5/p25 expressed in bacterial expression system using histone H1 as substrate in presence of ATP at measured after 30 mins by ADP-Glo assay.
In series [5] the target is Glycogen synthase kinase-3 beta (Homo sapiens, UniProt P49841). Kind of series: Inhibition of human recombinant GSK3beta expressed in baculovirus in Sf9 insect cells using YRRAAVPPSPSLSRHSSPHQSpEDEEE as substrate measured after 30 mins by ADP-Glo kinase assay.
Sequence of Glycogen synthase kinase-3 beta (P49841 whole entry, the tested form may be a part): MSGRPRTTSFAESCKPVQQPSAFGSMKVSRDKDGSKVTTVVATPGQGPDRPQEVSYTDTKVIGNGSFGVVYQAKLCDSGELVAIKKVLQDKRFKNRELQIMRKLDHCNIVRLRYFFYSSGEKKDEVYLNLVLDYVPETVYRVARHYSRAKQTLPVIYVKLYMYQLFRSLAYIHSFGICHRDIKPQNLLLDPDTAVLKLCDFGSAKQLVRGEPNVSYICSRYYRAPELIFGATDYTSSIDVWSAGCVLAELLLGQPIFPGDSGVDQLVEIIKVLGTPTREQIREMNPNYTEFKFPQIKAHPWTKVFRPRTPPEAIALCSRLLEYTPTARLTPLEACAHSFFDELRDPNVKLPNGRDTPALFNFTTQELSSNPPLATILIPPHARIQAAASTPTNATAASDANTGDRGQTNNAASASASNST
Series [6] deals with Dual specificity tyrosine-phosphorylation-regulated kinase 1A (Rattus norvegicus, UniProt Q63470). Kind of series: Inhibition of recombinant rat DYRK1A (1 to 499 residues ) expressed in bacterial expression system using KKISGRLSPIMTEQ as substrate measured after 30 mins in presence of ATP by ADP-Glo assay.
For series [7], the target named is Casein kinase I isoform epsilon (Homo sapiens, UniProt P49674). The series can be described thus: Inhibition of human recombinant CK1 epsilon expressed in baculovirus in sf9 insect cells using RRKHAAIGSpAYSITA as substrate in presence of ATP measured after 30 mins by ADP-Glo assay.
Sequence of Casein kinase I isoform epsilon (P49674 whole entry, canonical isoform): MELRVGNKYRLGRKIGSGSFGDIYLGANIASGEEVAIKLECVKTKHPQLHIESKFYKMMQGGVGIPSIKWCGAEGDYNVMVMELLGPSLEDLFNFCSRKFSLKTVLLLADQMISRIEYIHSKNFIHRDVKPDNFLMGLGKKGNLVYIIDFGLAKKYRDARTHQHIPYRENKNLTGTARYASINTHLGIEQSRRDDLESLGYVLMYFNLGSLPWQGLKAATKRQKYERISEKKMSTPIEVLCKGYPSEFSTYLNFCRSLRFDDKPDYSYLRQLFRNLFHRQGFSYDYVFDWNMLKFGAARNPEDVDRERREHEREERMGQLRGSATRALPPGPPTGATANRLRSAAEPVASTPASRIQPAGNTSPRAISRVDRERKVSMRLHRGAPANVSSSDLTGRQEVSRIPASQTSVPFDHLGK
For series [8], the target named is Tyrosine-protein kinase ABL1 (Homo sapiens, UniProt P00519). The series can be described thus: Inhibition of human recombinant ABL1 expressed in baculovirus sf9 insect cells using EAIYAAPFAKKK as substrate measured after 30 mins in presence of ATP by ADP-Glo assay.
Sequence of Tyrosine-protein kinase ABL1 (P00519 whole entry): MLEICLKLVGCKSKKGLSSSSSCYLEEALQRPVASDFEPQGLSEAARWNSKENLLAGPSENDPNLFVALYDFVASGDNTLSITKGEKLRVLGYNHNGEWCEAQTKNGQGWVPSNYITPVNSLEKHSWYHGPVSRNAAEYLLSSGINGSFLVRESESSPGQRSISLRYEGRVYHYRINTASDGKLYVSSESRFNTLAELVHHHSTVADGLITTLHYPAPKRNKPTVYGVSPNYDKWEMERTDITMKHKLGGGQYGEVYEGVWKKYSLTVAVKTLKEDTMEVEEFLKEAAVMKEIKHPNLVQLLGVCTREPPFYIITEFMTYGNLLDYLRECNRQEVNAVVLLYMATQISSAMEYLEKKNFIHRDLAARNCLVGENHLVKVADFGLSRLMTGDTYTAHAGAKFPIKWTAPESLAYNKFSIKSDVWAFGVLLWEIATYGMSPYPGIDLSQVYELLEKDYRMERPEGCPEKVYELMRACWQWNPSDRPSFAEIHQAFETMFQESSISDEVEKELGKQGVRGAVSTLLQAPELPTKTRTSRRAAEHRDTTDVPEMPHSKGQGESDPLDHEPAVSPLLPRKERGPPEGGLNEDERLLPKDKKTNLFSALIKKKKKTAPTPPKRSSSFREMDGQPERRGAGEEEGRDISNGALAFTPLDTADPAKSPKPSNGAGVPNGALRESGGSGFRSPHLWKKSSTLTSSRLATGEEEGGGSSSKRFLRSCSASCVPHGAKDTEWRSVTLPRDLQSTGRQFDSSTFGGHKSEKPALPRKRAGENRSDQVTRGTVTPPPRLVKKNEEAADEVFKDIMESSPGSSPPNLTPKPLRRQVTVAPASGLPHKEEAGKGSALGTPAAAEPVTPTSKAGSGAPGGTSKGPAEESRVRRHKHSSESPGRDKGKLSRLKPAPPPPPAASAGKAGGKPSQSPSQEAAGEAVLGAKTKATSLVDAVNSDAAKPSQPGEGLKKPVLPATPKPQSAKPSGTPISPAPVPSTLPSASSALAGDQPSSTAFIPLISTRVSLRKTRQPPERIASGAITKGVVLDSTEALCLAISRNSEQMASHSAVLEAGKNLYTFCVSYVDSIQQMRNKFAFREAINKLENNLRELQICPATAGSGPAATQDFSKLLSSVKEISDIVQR
The target in series [9] is Serine/threonine-protein kinase pim-1 (Homo sapiens, UniProt P11309). Kind of series: Inhibition of recombinant human PIM1 expressed in bacterial expression system using histone H1 as substrate measured after 30 mins in presence of ATP by ADP-Glo assay.
A further series concerns HCT-116. The series can be described thus: Cytotoxicity against human HCT-116 cells assessed as reduction in cell viability measured after 48 hrs by MTS assay. The settings on record: HCT-116, 48 h.
Series [10] in a line: Cytotoxicity against human TERT-RPE1 cells assessed as reduction in cell viability measured after 48 hrs by MTS assay. It is filed as toxicity, cell-based. For orientation: Tetrazolium dyes change colour on reduction, which living cells bring about.
For another series, the system named is HBL-100. Kind of series: Cytotoxicity against human HBL-100 cells assessed as reduction in cell viability measured after 48 hrs by MTS assay. The conditions noted are these: HBL-100, 48 h.
Another series relates to SH-SY5Y. Kind of series: Cytotoxicity against human SH-SY5Y cells assessed as reduction in cell viability measured after 48 hrs by MTS assay.
Series [11] is described as follows: Inhibition of human recombinant CDK9 expressed in baculovirus insect Sf9 cells using YSPTSPSYSPTSPSYSPTSPSKKKK as substrate measured after 30 mins in presence of ATP by ADP-Glo assay.
Another series concerns U2OS. The series can be described thus: Cytotoxicity against human U2OS cells assessed as reduction in cell viability measured after 48 hrs by MTS assay.
The target in series [12] is Serine/threonine-protein kinase PLK3 (Homo sapiens, UniProt Q9H4B4). The series can be described thus: Inhibition of human recombinant PLK3 in presence of ATP by kinomescan assay.
Sequence of Serine/threonine-protein kinase PLK3 (Q9H4B4 whole entry): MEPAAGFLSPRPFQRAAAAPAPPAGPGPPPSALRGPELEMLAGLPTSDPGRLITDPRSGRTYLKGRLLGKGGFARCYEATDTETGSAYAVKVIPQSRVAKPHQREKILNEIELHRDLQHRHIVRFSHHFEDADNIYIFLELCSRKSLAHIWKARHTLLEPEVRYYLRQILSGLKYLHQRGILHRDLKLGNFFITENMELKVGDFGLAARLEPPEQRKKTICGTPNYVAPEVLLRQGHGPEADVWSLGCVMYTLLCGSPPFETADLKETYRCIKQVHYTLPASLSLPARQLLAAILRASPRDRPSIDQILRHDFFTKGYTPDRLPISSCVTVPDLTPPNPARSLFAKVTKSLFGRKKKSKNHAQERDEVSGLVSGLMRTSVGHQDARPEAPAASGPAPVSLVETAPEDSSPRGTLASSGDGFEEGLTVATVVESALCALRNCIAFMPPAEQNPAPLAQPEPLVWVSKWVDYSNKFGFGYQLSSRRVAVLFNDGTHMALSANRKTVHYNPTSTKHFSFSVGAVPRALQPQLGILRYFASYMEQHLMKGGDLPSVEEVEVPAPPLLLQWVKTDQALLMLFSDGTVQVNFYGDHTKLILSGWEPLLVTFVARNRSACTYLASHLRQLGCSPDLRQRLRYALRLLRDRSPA
Series [13] addresses Serine/threonine-protein kinase PLK1 (Homo sapiens, UniProt P53350). The series can be described thus: Inhibition of human PLK1 in presence of ATP by kinomescan assay.
The target in series [14] is Serine/threonine-protein kinase PLK2 (Homo sapiens, UniProt Q9NYY3). Kind of series: Inhibition of human PLK2 in presence of ATP by kinomescan assay.
The target in series [15] is Death-associated protein kinase 3 (Homo sapiens, UniProt O43293). Kind of series: Inhibition of human DAPK3 in presence of ATP by kinomescan assay.
Sequence of Death-associated protein kinase 3 (O43293 whole entry): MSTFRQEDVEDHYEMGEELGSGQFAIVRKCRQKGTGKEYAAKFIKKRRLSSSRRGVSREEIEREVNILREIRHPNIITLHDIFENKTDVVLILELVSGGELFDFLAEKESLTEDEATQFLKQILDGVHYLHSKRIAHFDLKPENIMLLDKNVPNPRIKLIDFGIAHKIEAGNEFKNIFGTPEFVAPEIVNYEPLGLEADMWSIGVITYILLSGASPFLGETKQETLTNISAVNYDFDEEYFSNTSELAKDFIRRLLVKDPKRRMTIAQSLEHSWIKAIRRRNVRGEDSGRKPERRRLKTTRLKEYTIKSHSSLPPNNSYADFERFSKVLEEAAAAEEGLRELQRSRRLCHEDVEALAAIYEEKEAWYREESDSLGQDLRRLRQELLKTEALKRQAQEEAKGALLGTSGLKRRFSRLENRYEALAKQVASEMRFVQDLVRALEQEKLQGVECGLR

Sequence of Cyclin-dependent kinase 5/CDK5 activator 1 (Q00535 whole entry): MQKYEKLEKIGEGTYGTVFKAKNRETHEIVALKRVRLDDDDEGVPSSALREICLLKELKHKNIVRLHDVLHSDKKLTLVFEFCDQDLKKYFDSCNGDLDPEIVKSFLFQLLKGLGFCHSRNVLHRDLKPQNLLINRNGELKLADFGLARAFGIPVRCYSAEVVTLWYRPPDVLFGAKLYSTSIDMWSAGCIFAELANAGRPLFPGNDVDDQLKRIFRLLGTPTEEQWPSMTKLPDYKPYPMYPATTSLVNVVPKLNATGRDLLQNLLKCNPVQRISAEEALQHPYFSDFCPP
Sequence of Cyclin-dependent kinase 5/CDK5 activator 1 (Q15078 whole entry, further chain): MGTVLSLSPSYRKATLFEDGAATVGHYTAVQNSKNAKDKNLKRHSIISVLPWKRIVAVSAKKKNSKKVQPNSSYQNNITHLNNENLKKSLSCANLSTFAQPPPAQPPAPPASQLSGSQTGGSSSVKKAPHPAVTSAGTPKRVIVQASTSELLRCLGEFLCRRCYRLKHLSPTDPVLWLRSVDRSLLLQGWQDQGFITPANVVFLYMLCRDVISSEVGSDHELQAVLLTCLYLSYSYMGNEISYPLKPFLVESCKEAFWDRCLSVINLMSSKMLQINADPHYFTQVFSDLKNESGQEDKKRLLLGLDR
Sequence of Serine/threonine-protein kinase PLK1 (P53350 whole entry): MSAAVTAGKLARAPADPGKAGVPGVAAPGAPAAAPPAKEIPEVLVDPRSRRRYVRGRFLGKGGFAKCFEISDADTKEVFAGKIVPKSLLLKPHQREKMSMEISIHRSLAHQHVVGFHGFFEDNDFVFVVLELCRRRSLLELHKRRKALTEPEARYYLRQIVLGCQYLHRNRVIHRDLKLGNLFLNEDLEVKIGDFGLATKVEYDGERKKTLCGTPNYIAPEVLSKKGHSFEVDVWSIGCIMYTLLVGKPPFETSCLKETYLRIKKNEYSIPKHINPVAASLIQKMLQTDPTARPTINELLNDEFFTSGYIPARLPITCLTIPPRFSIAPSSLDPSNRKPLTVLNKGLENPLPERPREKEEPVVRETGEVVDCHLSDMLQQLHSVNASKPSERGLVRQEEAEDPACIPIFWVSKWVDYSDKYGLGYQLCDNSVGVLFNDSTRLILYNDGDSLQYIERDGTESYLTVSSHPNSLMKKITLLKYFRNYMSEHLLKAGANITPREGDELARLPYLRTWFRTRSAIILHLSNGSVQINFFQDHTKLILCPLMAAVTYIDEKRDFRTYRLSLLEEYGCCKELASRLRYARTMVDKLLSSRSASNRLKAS

One may read the IC50 as the concentration that inhibits the measured activity by half. Turning to `CC(C)Sc1ncc2cc3cnccc3c([N+](=O)[O-])c2n1`, the IC50 in [1] was determined as 114 nM.

For the compound `CCCCSc1ncc2cc3cnccc3c([N+](=O)[O-])c2n1`, in series [1], it took 1040 nM to reach half-maximal inhibition (IC50).

In series [1], `CCC(C)Sc1ncc2cc3cnccc3c(N)c2n1` (centres undefined) gave an IC50 of 202 nM.

Regarding `CCCCCSc1ncc2cc3cnccc3c(N)c2n1`, in series [1], the IC50 was found to be 432 nM.

Consider `CCCNc1ccc2ncc(-c3ccc4[nH]ncc4c3)n2n1`, for which the IC50 turned out to be 119 nM in series [2]; 8 nM in [3]; 41 nM in [4]; 53 nM in [5]; 13 nM in [6]; 99 nM in [7]. Besides, the IC50 in series [8] turned out to be 162 nM; in series [9] it was 29 nM.

Regarding `CCCSc1ncc2cc3cnccc3c(N)c2n1`, the IC50 in series [1] was 65 nM; in series [3], 90 nM; in [6], 148 nM.

Take `CCSc1ncc2cc3cnccc3c(N)c2n1`: half-maximal inhibition in [1] (IC50) required 124 nM.

For the compound `CCCSc1ncc2cc3cnccc3c([N+](=O)[O-])c2n1`, the IC50 in series [1] amounted to 169 nM.

As a reminder, the EC50 is the concentration at which the effect is half-maximal. On to `Nc1ccc2cc3cnccc3c([N+](=O)[O-])c2n1`, for which the EC50 in the series on HCT-116 amounted to 200 nM; in the series on HBL-100 it was 800 nM; with SH-SY5Y, 200 nM; with U2OS it was 300 nM. The IC50 in [1] came out at 3 nM; in [3] it was 20 nM; in series [5], 418 nM; in [6], 87 nM; in series [11], 24 nM. Also, the EC50 at 48 h in series [10] stood at 400 nM.

For the compound `CC(C)Sc1ncc2cc3cnccc3c(N)c2n1`, the results for the IC50 in series [1], in series [3] and in series [6] were 56 nM, 72 nM and 594 nM, respectively.

Turning to `COc1ncc2cc3cnccc3c(N)c2n1`, inhibition in [1] was half-maximal at 159 nM (IC50).

On to `CSc1ncc2cc3cnccc3c([N+](=O)[O-])c2n1`, for which the EC50 in the series on HCT-116 was found to be 1100 nM; in the series with HBL-100, 1300 nM; in the series on SH-SY5Y, 1200 nM. Further, the IC50 in series [1] was 119 nM; in series [11], 407 nM. The EC50 at 48 h in series [10] turned out to be 800 nM.

Consider `COc1ncc2cc3cnccc3c([N+](=O)[O-])c2n1`, for which the IC50 in series [12] was 117 nM; in series [13], 294 nM; in [14], 125 nM; in series [15], 578 nM. The EC50 at 48 h in series [10] was determined as 3200 nM.

For `CCCCSc1ncc2cc3cnccc3c(N)c2n1`, the IC50 in series [1] stood at 69 nM; in [3], 92 nM; in series [6], 132 nM.

For the compound `CCC(C)Sc1ncc2cc3cnccc3c([N+](=O)[O-])c2n1` (centres undefined), the midpoint of inhibition in series [1], the IC50, lay at 484 nM.

Consider `CCSc1ncc2cc3cnccc3c([N+](=O)[O-])c2n1`, for which the figures for the IC50 in series [1], in [3] and in series [6] were 91 nM, 148 nM and 515 nM, respectively.

Compound `CCOC(=O)CCSc1ncc2cc3cnccc3c([N+](=O)[O-])c2n1` displayed an IC50 in series [1] of 897 nM.

With `CSc1ncc2cc3cnccc3c(N)c2n1`, the IC50 in series [1] came out at 12 nM; in series [3] it was 37 nM; in series [6] it was 47 nM; in [11], 189 nM.
